Experimental findings from PubChem BioAssay AID651985 (The Scripps Research Institute Molecular Screening Center, 2013) are described below.

As usually defined, the inhibition is the share of the control response that was lost under treatment.

For one experiment, the system named is LYPLA1. Nature of the experiment: PubChem AID 651985. As to conditions: C57 mice dosed, tissue gel ABPP with NHU5 probe, stronger effect = higher value.
A further experiment has as its system LYPLA2. In words: PubChem AID 651985. As to conditions: C57 mice dosed, tissue gel ABPP with NHU5 probe, stronger effect = higher value.

SMILES strings stand for the structures. The source made the active and inactive calls. How the calls were made is not given here.

As to `O=C(CN1CCN(C(=O)c2ccco2)CC1)Nc1cc(C(F)(F)F)ccc1Cl`, the inhibition in the experiment with LYPLA1 (heart) was 100%; in the experiment on LYPLA1, 25%; in the experiment on LYPLA1 (kidney), 75%; in the experiment on LYPLA1 (liver), 0%; in the experiment on LYPLA1 (lung), 100%; in the experiment with LYPLA2 (heart) it was 0%. Further, the inhibition is 0% (inactive) in the experiment with LYPLA2, 0% with LYPLA2 (kidney), 0% with LYPLA2 (liver) and 0% in the experiment on LYPLA2 (lung).
In the case of `COc1ccc(N2CCN(C(=O)c3cc4c(s3)-c3ccccc3S(=O)(=O)C4)CC2)cc1`, the inhibition was 0% in the experiment on LYPLA1 (heart); 0% (inactive) in the experiment on LYPLA1; 0% in the experiment on LYPLA1 (kidney); 0% in the experiment on LYPLA1 (liver); 0% in the experiment with LYPLA1 (lung); 100% in the experiment on LYPLA2 (heart). The inhibition in the experiment with LYPLA2 was 50%; with LYPLA2 (kidney), 75%; with LYPLA2 (liver) it was 0%; in the experiment on LYPLA2 (lung), 100%.
